Measured values as given in patent US12396964B2 (Shinkei Therapeutics, Inc., priority 2021, dated 2025).
Structures can show the parent of a compound that is named as a salt.

Tests used:
clinical = conditions: human, in vivo
Protocol: The subjects received the test treatments as described in Table 1 below, under direct observation following an overnight fast of at least 10 hours.
Plasma concentrations of amantadine increased rapidly and reached maximum plasma concentrations at around 3 hours after start of the IV infusion.
The plasma amantadine concentrations from healthy adults enrolled in the open-label, multiple-cohort, single-period non-randomized single-ascending dose study of Example 1 were used to determine the decrease in concentration of amantadine over time, after the administration of the first dose of 100 mg and 150 mg in different cohorts. The data is supportive in determining the timing of the second dose of amantadine.

[1] = Safety and tolerability study of amantadine hydrochloride IV solution 200 mg with plasma sampling in healthy adult subjects (Example 2); type: in vivo, human; conditions: 200 mg IV
Protocol: 4 mL venous blood was collected before dosing (0 hour) and at the following nominal times after dosing: 0.5, 1, 2, 3, 4, 5, 5.5, 6, 7, 9, 12, 16, 24, 36, 48 and 72 hours post-dose. Safety was assessed by qualified study staff by evaluating the following: reported adverse events, clinical laboratory test results, vital sign measurements, ECG findings, physical examination findings at screening and clinic exit (including body weight and height measurements), and concomitant medication usage. The blood samples collected were used to assess the decrease in concentration of amantadine in the plasma over time, and is tabulated in Table 3 below.

[2] = Applicants' finding on safety of the intravenous dose, volume and rate of administration
Protocol: As discussed above, the volume of fluid is not only critical in terms of increase in ICP, but it is also critical in terms of defining the time of administration of the dose, and therefore, the rate of administration of the dose. […] Each dose is administered over a period of 180 minutes, i.e. at a rate of about 1.39 ml/min.

NC12CC3CC(CC(C3)C1)C2 [amantadine hydrochloride]
half-life (clinical; both sexes, iv, T1/2): 685 min
Tmax (clinical; both sexes, iv, Tmax): 3 h
half-life (clinical; both sexes, iv, half-life (T½)): 660 to 900 min
Tmax (clinical; both sexes, iv, maximum plasma concentration (Tmax)): 3 to 4 h
half-life (clinical; both sexes, iv, mean elimination half-life): 690 to 870 min
increase of AUC0-28, more than proportional to the dose (clinical; both): ~3 fold
increase of Cmax, more than proportional to the dose (clinical; both): ~2.3 fold
Tmax (clinical; both, iv): 3.25 h
plasma levels remained detectable post-dose (clinical; both, iv, 3 h): 48 to 72 h
% decrease in plasma amantadine concentration ([1]; 0 hr after first dose): 0.0%
% decrease in plasma amantadine concentration ([1]; 1 hr after first dose): 14.0%
% decrease in plasma amantadine concentration ([1]; 2 hr after first dose): 20.9%
% decrease in plasma amantadine concentration ([1]; 2.5 hr after first dose): 24.5%
% decrease in plasma amantadine concentration ([1]; 3 hr after first dose): 26.2%
% decrease in plasma amantadine concentration ([1]; 4 hr after first dose): 30.0%
% decrease in plasma amantadine concentration ([1]; 6 hr after first dose): 34.5%
% decrease in plasma amantadine concentration ([1]; 9 hr after first dose): 48.3%
safety of the dose ([2]; about 100 mg to about 200 mg in a volume of 250 ml as a single dose, over 180 minutes, twice a day): safe
safety of the rate of administration ([2]; rate ranging between 0.5 mg/min to about 1.2 mg/min): safe
